Test [1] concerns the target T1, HiBit-BRG1 fusion protein (Homo sapiens, UniProt P51532).
T1 construct: expressed in transfected cells
The experiment in a line: HiBiT-BRG1 cell-based degradation assay (Nano-Glo HiBiT Lytic Detection, 24 h). To be noted: for Dmax: HeLa, top dose 30 μM, read-out: BRG1 HiBit Degradation Maximum measured. A digest of the protocol:
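Degradation is scaled from DMSO-treated cells (0%) to cells given 2 μM of a known BRM/BRG1 degrader (100%). HeLa cells stably carrying HiBiT-BRG1 plus LgBiT (5000/well) were lysed with Nano-Glo HiBiT detection reagent, shaken 10 min at RT, and luminescence read.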

A further test concerns the target T2, HiBit-BRM fusion protein (Homo sapiens, UniProt P51531).
T2 construct: expressed in transfected cells
The experiment in a line: HiBiT-BRM cell-based degradation assay (Nano-Glo HiBiT Lytic Detection, 24 h). To be noted: HeLa cells expressing HiBiT-BRM; for DC50: read-out: BRM HiBit Degradation IC50; for BRM HiBit Degradation Maximum measured: top dose 30 μM. The procedure, abridged:
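Residual HiBiT-BRM in a stable HeLa line was measured by Nano-Glo lytic luminescence after 24 h compound exposure (top final dose 30 μM, 3-fold, 10 points, duplicate). Values are % degradation, scaled between DMSO-treated cells and cells given 2 μM of a known BRM/BRG1 degrader.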

The mark [2] stands for this setting: HeLa cells expressing HiBit-BRG1 and LgBit, read-out: BRG1 HiBit Degradation IC50.
Setting [3] is: HeLa cells expressing HiBit-BRG1 and LgBit.

The record followed here is patent US12662479B2 (Foghorn Therapeutics Inc., priority 2020, dated 2026).

Structures are written as SMILES. Like-named read-outs stand apart in the source and are kept apart here.

T2 sequence (P51531 whole entry, the tested form may be a part): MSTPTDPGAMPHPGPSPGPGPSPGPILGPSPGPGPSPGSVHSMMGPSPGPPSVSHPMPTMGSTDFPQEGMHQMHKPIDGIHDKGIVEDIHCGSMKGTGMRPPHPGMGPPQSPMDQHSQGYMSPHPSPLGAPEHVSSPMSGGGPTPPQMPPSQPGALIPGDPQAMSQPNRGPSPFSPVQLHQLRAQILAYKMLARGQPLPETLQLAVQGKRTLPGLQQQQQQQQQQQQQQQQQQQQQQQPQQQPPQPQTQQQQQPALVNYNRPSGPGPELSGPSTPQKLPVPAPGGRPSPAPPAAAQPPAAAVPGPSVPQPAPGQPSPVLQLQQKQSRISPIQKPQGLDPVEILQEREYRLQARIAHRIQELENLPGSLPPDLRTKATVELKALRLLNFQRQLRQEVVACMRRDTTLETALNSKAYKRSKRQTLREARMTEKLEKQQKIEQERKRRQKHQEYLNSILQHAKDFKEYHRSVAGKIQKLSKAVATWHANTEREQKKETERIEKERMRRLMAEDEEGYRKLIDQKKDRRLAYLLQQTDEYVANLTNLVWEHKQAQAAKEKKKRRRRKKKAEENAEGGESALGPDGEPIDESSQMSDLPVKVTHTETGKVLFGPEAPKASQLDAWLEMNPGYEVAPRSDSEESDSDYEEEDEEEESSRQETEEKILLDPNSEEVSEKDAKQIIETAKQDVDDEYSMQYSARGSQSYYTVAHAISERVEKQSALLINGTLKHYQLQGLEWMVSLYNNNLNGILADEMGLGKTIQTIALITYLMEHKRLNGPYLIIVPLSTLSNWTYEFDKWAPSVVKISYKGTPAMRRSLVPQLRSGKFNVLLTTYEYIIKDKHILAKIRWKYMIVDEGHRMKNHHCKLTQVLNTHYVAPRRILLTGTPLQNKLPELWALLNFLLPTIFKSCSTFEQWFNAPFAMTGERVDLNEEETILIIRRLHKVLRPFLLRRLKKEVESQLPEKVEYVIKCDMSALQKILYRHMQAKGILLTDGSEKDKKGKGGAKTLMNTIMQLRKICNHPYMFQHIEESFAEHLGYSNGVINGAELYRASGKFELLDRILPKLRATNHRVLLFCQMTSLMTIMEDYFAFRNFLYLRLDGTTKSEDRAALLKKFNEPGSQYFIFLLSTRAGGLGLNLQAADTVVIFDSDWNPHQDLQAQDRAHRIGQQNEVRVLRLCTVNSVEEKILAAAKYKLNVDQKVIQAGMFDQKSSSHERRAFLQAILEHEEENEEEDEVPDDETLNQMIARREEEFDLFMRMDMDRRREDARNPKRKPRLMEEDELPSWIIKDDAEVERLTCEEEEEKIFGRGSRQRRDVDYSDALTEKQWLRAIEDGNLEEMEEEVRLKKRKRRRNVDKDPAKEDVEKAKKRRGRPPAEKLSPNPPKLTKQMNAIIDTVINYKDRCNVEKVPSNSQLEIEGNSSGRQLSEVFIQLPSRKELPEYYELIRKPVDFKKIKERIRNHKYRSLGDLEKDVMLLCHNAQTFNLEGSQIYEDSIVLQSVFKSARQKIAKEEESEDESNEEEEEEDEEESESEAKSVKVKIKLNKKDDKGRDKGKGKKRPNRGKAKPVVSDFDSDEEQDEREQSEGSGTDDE
T1 sequence (P51532 whole entry, the tested form may be a part): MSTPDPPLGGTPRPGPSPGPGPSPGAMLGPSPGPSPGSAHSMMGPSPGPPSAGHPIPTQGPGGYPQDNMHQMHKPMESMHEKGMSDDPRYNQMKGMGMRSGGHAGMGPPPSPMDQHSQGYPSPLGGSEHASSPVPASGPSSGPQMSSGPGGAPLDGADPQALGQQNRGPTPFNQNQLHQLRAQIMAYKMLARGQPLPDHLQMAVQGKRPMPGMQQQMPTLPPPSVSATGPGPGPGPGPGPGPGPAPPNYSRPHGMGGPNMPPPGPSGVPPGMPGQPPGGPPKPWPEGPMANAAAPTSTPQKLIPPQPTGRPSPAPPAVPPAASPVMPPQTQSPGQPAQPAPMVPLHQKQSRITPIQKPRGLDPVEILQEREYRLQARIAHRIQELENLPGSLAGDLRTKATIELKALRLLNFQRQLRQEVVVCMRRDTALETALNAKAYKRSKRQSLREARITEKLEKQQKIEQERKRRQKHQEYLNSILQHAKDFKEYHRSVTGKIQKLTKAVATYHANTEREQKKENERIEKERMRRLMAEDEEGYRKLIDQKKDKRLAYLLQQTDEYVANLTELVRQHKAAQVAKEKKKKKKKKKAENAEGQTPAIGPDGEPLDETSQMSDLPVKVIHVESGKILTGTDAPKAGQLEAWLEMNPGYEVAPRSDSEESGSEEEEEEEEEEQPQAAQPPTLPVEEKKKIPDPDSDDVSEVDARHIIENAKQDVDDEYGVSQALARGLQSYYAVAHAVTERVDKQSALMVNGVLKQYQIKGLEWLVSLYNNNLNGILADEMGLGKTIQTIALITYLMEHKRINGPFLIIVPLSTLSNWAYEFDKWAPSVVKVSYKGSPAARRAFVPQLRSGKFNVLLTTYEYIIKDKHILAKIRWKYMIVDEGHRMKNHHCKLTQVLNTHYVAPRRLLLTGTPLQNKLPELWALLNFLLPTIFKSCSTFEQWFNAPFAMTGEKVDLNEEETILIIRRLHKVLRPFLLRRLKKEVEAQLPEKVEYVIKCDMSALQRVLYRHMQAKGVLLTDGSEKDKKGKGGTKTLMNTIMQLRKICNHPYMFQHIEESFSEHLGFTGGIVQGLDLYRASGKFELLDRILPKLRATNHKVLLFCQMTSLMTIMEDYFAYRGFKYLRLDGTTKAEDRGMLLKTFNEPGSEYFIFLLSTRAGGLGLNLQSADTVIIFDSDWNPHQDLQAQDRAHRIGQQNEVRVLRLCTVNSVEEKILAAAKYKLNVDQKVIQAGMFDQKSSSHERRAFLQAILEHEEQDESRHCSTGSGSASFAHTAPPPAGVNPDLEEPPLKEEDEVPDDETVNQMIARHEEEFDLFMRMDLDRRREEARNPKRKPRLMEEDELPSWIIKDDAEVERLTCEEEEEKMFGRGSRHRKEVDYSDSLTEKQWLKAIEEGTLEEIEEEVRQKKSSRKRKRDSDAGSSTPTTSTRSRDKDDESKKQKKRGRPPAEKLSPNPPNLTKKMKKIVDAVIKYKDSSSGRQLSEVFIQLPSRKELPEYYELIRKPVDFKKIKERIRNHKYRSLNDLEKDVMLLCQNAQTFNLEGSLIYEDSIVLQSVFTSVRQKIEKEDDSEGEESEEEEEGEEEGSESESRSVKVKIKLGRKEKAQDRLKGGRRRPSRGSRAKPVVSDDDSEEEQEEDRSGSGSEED

For the compound `CS(=O)(=O)n1ccc(C(=O)N[C@@H](CCOCCCC(=O)NCCOc2cccc(OCCNc3ccc4c(c3)C(=O)N(C3CCC(=O)NC3=O)C4=O)c2)C(=O)Nc2nc(-c3ccccc3)cs2)c1` (stereo partly drawn) [Compound 285, (2S)-4-[3-([2-[3-(2-[[2-(2,6-dioxopiperidin-3-yl)-1,3-dioxoisoindol-5-yl]amino]ethoxy)phenoxy]ethyl]carbamoyl)propoxy]-2-[(1-methanesulfonylpyrrol-3-yl)formamido]-N-(4-phenyl-1,3-thiazol-2-yl)butanamide], the DC50 in test [1] (setting [2]) was > 10 µM. Further, in test [1] (setting [3]), the Dmax was < 50%. Moreover, at HiBit-BRM fusion protein, the DC50 was > 10 µM and the “BRM HiBit Degradation Maximum measured” value is “C (‘C’ = Maximum degradation <50%)”.

In the case of `Cc1ncsc1-c1ccc(CNC(=O)[C@@H]2C[C@@H](O)CN2C(=O)[C@@H](NC(=O)CCCCCC(=O)NCc2cccc(-c3cccc(-c4csc(NC(=O)CNC(=O)c5ccn(S(C)(=O)=O)c5)n4)c3)c2)C(C)(C)C)cc1` [Compound 62, N1-((S)-1-((2S,4R)-4-hydroxy-2-((4-(4-methylthiazol-5-yl)benzyl)carbamoyl)pyrrolidin-1-yl)-3,3-dimethyl-1-oxobutan-2-yl)-N7-((3′-(2-(2-(1-(methylsulfonyl)-1H-pyrrole-3-carboxamido)acetamido)thiazol-4-yl)-[1,1′-biphenyl]-3-yl)methyl)heptanediamide], the DC50 in test [1] (setting [2]) fell in the range of 0.1 to 1 µM. Also, the Dmax in test [1] (setting [3]) is > 75%. In addition, at HiBit-BRM fusion protein, the DC50 was 0.1 to 1 µM and the “BRM HiBit Degradation Maximum measured” value was “A (‘A’ = Maximum degradation >75%)”.

Take `CN(CCNC(=O)CCCOCC[C@H](NC(=O)c1ccn(S(C)(=O)=O)c1)C(=O)Nc1nc(-c2ccccc2)cs1)CCNC(=O)COc1cccc2c1C(=O)N(C1CCC(=O)NC1=O)C2=O.O=CO` (stereo partly drawn) [Compound 252, (2S)-4-[3-[(2-[[2-(2-[[2-(2,6-dioxopiperidin-3-yl)-1,3-dioxoisoindol-4-yl]oxy]acetamido)ethyl](methyl)amino]ethyl)carbamoyl]propoxy]-2-[(1-methanesulfonylpyrrol-3-yl)formamido]-N-(4-phenyl-1,3-thiazol-2-yl)butanamide; formic acid]: the DC50 in test [1] (setting [2]) is > 10 µM. For the same compound, the Dmax in test [1] (setting [3]) was < 50%. At HiBit-BRM fusion protein, the DC50 was > 10 µM and the “BRM HiBit Degradation Maximum measured” value is on record as “C (‘C’ = Maximum degradation <50%)”.

As for `CS(=O)(=O)n1ccc(C(=O)N[C@@H](COCCCC(=O)NCCOc2ccc3c(c2)C(=O)N(C2CCC(=O)NC2=O)C3=O)C(=O)Nc2nc(-c3ccccc3)cs2)c1` (stereo partly drawn) [Compound 228], the DC50 in test [1] (setting [2]) was > 10 µM. The Dmax in test [1] (setting [3]) is < 50%. For the same compound, at HiBit-BRM fusion protein, the DC50 is > 10 µM and the “BRM HiBit Degradation Maximum measured” value is reported as “C (‘C’ = Maximum degradation <50%)”.

On to `CS(=O)(=O)n1ccc(C(=O)N[C@@H](COCc2ccc(C(=O)N3CC(COc4ccc5c(c4)C(=O)N(C4CCC(=O)NC4=O)C5=O)C3)cc2)C(=O)Nc2nc(-c3ccccc3)cs2)c1` (stereo partly drawn) [Compound 198, (2S)-3-([4-[3-([[2-(2,6-dioxopiperidin-3-yl)-1,3-dioxoisoindol-5-yl]oxy]methyl)azetidine-1-carbonyl]phenyl]methoxy)-2-[(1-methanesulfonylpyrrol-3-yl)formamido]-N-(4-phenyl-1,3-thiazol-2-yl)propanamide], for which the DC50 in test [1] (read-out: BRG1 HiBit Degradation IC50, HeLa cells expressing HiBit-BRG1 and LgBit) is > 10 µM; on HiBit-BRM fusion protein, > 10 µM. On HiBit-BRM fusion protein, the “BRM HiBit Degradation Maximum measured” value is listed as “C (‘C’ = Maximum degradation <50%)”.

`CS(=O)(=O)n1ccc(C(=O)N[C@@H](CCOCCCC(=O)N2CCN(CCOc3ccc4c(c3)C(=O)N(C3CCC(=O)NC3=O)C4=O)CC2)C(=O)Nc2nc(-c3ccccc3)cs2)c1` (stereo partly drawn) [Compound 219, (2S)-4-[4-[4-(2-[[2-(2,6-dioxopiperidin-3-yl)-1,3-dioxoisoindol-5-yl]oxy]ethyl)piperazin-1-yl]-4-oxobutoxy]-2-[(1-methanesulfonylpyrrol-3-yl)formamido]-N-(4-phenyl-1,3-thiazol-2-yl)butanamide]: the DC50 in test [1] (setting [2]) was > 10 µM. Moreover, the Dmax in test [1] (setting [3]) is < 50%. In addition, on HiBit-BRM fusion protein, the DC50 was > 10 µM and the “BRM HiBit Degradation Maximum measured” value was “C (‘C’ = Maximum degradation <50%)”.

`Cc1ncsc1-c1ccc(CNC(=O)[C@@H]2C[C@@H](O)CN2C(=O)[C@@H](NC(=O)CCCC(=O)NCc2cccc(-c3cccc(-c4csc(NC(=O)CNC(=O)c5ccn(S(C)(=O)=O)c5)n4)c3)c2)C(C)(C)C)cc1` [Compound 56, N′-[(1S)-1-[(2S,4R)-4-hydroxy-2-[[4-(4-methylthiazol-5-yl)phenyl]methylcarbamoyl]pyrrolidine-1-carbonyl]-2,2-dimethyl-propyl]-N-[[3-[3-[2-[[2-[(1-methylsulfonylpyrrole-3-carbonyl)amino]acetyl]amino]thiazol-4-yl]phenyl]phenyl]methyl]pentanediamide]: the DC50 (in test [1] (setting [2]); on HiBit-BRM fusion protein) was > 10 µM each time. In addition, the Dmax in test [1] (setting [3]) was < 50%. In addition, the “BRM HiBit Degradation Maximum measured” value on HiBit-BRM fusion protein is “C (‘C’ = Maximum degradation <50%)”.

For the compound `CN(CC(=O)N1CC(COc2cccc3c2C(=O)N(C2CCC(=O)NC2=O)C3=O)C1)c1cc(-c2cccc(-c3csc(NC(=O)CNC(=O)c4ccn(S(C)(=O)=O)c4)n3)c2)ccn1` (stereo not drawn) [Compound 27], in test [1] (setting [2]), the DC50 was > 10 µM. Further, in test [1] (setting [3]), the Dmax is < 50%. For the same compound, on HiBit-BRM fusion protein, the DC50 was > 10 µM and the “BRM HiBit Degradation Maximum measured” value is recorded as “C (‘C’ = Maximum degradation <50%)”.

For `Cc1ncsc1-c1ccc(CNC(=O)[C@@H]2C[C@@H](O)CN2C(=O)[C@@H](NC(=O)CN2CCC(C(=O)NCc3cccc(-c4cccc(-c5csc(NC(=O)CNC(=O)c6ccn(S(C)(=O)=O)c6)n5)c4)c3)CC2)C(C)(C)C)cc1` [Compound 138, 1-([[(2S)-1-[(2S,4R)-4-hydroxy-2-([[4-(4-methyl-1,3-thiazol-5-yl)phenyl]methyl]carbamoyl)pyrrolidin-1-yl]-3,3-dimethyl-1-oxobutan-2-yl]carbamoyl]methyl)-N-[[3-(2-[2-[(1-methanesulfonylpyrrol-3-yl)formamido]acetamido]-1,3-thiazol-4-yl)-[1,1-biphenyl]-3-yl]methyl]piperidine-4-carboxamide], the DC50 in test [1] (setting [2]) was 1 to 10 µM. Besides, the Dmax in test [1] (setting [3]) was in the range of 50 to 75%. On HiBit-BRM fusion protein, the DC50 is 1 to 10 µM; the “BRM HiBit Degradation Maximum measured” value is “B (‘B’ = Maximum degradation ≥50% and ≤75%)”.

For `CS(=O)(=O)n1ccc(C(=O)N[C@@H](CCOCCCC(=O)N2CC(Oc3ccc4c(c3)C(=O)N(C3CCC(=O)NC3=O)C4=O)C2)C(=O)Nc2nc(-c3ccccc3)cs2)c1` (stereo partly drawn) [Compound 256, (2S)-4-[4-(3-[[2-(2,6-dioxopiperidin-3-yl)-1,3-dioxoisoindol-5-yl]oxy]azetidin-1-yl)-4-oxobutoxy]-2-[(1-methanesulfonylpyrrol-3-yl)formamido]-N-(4-phenyl-1,3-thiazol-2-yl)butanamide], the DC50 in test [1] (setting [2]) was > 10 µM. In addition, the Dmax in test [1] (setting [3]) is < 50%. At HiBit-BRM fusion protein, the DC50 was > 10 µM and the “BRM HiBit Degradation Maximum measured” value is “C (‘C’ = Maximum degradation <50%)”.

With `CS(=O)(=O)n1ccc(C(=O)N[C@@H](CCCCNC(=O)CCCCCCCCCCNc2cccc3c2C(=O)N(C2CCC(=O)NC2=O)C3=O)C(=O)Nc2nc(-c3ccccc3)cs2)c1` (stereo partly drawn) [Compound 296, 11-[[2-(2,6-dioxopiperidin-3-yl)-1,3-dioxoisoindol-4-yl]amino]-N-[(5S)-5-[(1-methanesulfonylpyrrol-3-yl)formamido]-5-[(4-phenyl-1,3-thiazol-2-yl)carbamoyl]pentyl]undecanamide], the DC50 in test [1] (setting [2]) was > 10 µM. Also, in test [1] (setting [3]), the Dmax was < 50%. On HiBit-BRM fusion protein, the DC50 is > 10 µM and the “BRM HiBit Degradation Maximum measured” value is recorded as “C (‘C’ = Maximum degradation <50%)”.

As to `Cc1ncsc1-c1ccc(CNC(=O)[C@@H]2C[C@@H](O)CN2C(=O)[C@@H](NC(=O)CCCCCCCCCCCCC(=O)NCc2ccc(COC[C@H](NC(=O)c3ccn(S(C)(=O)=O)c3)C(=O)Nc3nc(-c4ccccc4)cs3)cc2)C(C)(C)C)cc1` [Compound 211, N-[(2S)-1-[(2S,4R)-4-hydroxy-2-([[4-(4-methyl-1,3-thiazol-5-yl)phenyl]methyl]carbamoyl)pyrrolidin-1-yl]-3,3-dimethyl-1-oxobutan-2-yl]-N′-[(4-[[(2S)-2-[(1-methanesulfonylpyrrol-3-yl)formamido]-2-[(4-phenyl-1,3-thiazol-2-yl)carbamoyl]ethoxy]methyl]phenyl)methyl]tetradecanediamide], in test [1] (setting [2]), the DC50 was > 10 µM. Moreover, the Dmax in test [1] (setting [3]) is < 50%. At HiBit-BRM fusion protein, the DC50 was > 10 µM and the “BRM HiBit Degradation Maximum measured” value was “C (‘C’ = Maximum degradation <50%)”.

On to `CS(=O)(=O)n1ccc(C(=O)N[C@@H](COCc2ccc(C(=O)NC3CCN(CCOc4ccc5c(c4)C(=O)N(C4CCC(=O)NC4=O)C5=O)CC3)cc2)C(=O)Nc2nc(-c3ccccc3)cs2)c1` (stereo partly drawn) [Compound 247, N-[1-(2-[[2-(2,6-dioxopiperidin-3-yl)-1,3-dioxoisoindol-5-yl]oxy]ethyl)piperidin-4-yl]-4-[[(2S)-2-[(1-methanesulfonylpyrrol-3-yl)formamido]-2-[(4-phenyl-1,3-thiazol-2-yl)carbamoyl]ethoxy]methyl]benzamide], for which the DC50 in test [1] (setting [2]) fell in the range of 0.1 to 1 µM. In addition, in test [1] (setting [3]), the Dmax is > 75%. Moreover, on HiBit-BRM fusion protein, the DC50 lay within 0.1 to 1 µM and the “BRM HiBit Degradation Maximum measured” value was “A (‘A’ = Maximum degradation >75%)”.
